Here are results for 28 compounds from patent US11034698B2, “Pyrazolo[ 1,5a]pyrimidine derivatives as IRAK4 modulators” (priority 2017, dated 2021).

Each structure is given as a SMILES string.

Sequence of human IRAK4 (Q9NWZ3 whole entry): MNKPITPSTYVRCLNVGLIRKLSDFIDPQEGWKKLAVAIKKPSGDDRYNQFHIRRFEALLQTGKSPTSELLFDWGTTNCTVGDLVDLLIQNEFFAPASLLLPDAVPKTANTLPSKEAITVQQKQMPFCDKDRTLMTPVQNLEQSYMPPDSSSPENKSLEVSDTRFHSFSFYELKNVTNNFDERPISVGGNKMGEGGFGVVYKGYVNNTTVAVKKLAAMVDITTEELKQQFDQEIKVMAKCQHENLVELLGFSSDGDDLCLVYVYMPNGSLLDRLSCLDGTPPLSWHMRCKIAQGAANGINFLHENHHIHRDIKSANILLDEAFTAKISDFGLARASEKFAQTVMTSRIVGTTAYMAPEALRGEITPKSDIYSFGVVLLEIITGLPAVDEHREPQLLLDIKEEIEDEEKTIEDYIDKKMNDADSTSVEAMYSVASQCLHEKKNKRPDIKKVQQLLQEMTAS

One assay concerns the target human IRAK4 (Homo sapiens (Human), UniProt Q9NWZ3). The experiment in a line: IRAK4 kinase inhibition, Transcreener fluorescence polarization (ADP). The format is biochemical.
Settings: not given
On the procedure:
Compounds were assayed for inhibition of human IRAK4 and IRAK1 catalytic activity using recombinant enzyme produced from insect cells. Full-length IRAK4 protein, carrying an N-terminal His6-Tag, was obtained from Life Technologies (Carlsbad, Calif., USA). The IRAK1 construct was produced internally and was comprised of IRAK1 residues Arg194 to Ser712, preceded by an NH2-terminal His6 tag and the coding sequence for glutathione-S-transferase.
Kinase activities were assayed using the Transcreener-Fluorecescence polarization platform (BelBrook Labs, Madison, Wis., USA) that measures amounts of the reaction product, ADP.
As to `CC1(C)Cc2cc(NC(=O)c3cnn4cccnc34)c(OC[C@H]3Cc4ccccc4[C@@H]3N)cc2O1` (single isomer, unassigned) [Example 28], affinity was put at a Ki of 260 nM. The same measure, in the same setting: as for `CC1(C)Cc2cc(NC(=O)c3cnn4cccnc34)c(OC[C@@H]3C[C@@H]4NCCO[C@H]4C3)cc2O1` (single isomer, unassigned) [Example 31], the figure is 60 nM.

The assay is the same for the next values; noted with them: recombinant full-length His6-IRAK4 1.25 nM; 125 uM ATP; 125 uM peptide; 90 min; ATP Km 642 uM; read-out: IRAK4 Ki.
As to `Cc1noc(C)c1CN1CCN(c2cc3c(cc2NC(=O)c2cnn4cccnc24)CC(C)(C)O3)CC1` [Example 16, N-(6-(4-((3,5-Dimethylisoxazol-4-yl)methyl)piperazin-1-yl)-2,2-dimethyl-2,3-dihydrobenzofuran-5-yl)pyrazolo[1,5-a]pyrimidine-3-carboxamide], the Ki was found to be 14 nM.

For the compound `CCOc1cc2c(cc1NC(=O)c1cnn3cccnc13)CN(C[C@@H](F)C(C)(C)O)C2=O` [Example 82, (R)-N-(6-Ethoxy-2-(2-fluoro-3-hydroxy-3-methylbutyl)-1-oxoisoindolin-5-yl)pyrazolo[1,5-a]pyrimidine-3-carboxamide], the Ki is 0.37 nM. Still for that read-out and setting: as for `CC(C)(O)[C@H](F)CN1Cc2cc(NC(=O)c3cnn4cccnc34)c(OC3CC3)cc2C1=O` [Example 77, (R)—N-(6-Cyclopropoxy-2-(2-fluoro-3-hydroxy-3-methylbutyl)-1-oxoisoindolin-5-yl)pyrazolo[1,5-a]pyrimidine-3-carboxamide], the figure is 0.63 nM; as for `CC(C)(O)[C@H](F)CN1Cc2cc(NC(=O)c3cnn4cccnc34)c(OC3COC3)cc2C1=O` [Example 87, (R)-N-(2-(2-Fluoro-3-hydroxy-3-methylbutyl)-6-(oxetan-3-yloxy)-1-oxoisoindolin-5-yl)pyrazolo[1,5-a]pyrimidine-3-carboxamide], 0.59 nM.

As for `Cn1cc(COc2cc3c(cc2NC(=O)c2cnn4cccnc24)CN(C[C@@H](F)C(C)(C)O)C3=O)cn1` [Example 60, (R)—N-(2-(2-Fluoro-3-hydroxy-3-methylbutyl)-6-((1-methyl-1H-pyrazol-4-yl)methoxy)-1-oxoisoindolin-5-yl)pyrazolo[1,5-a]pyrimidine-3-carboxamide], the Ki was 1.1 nM. On the same count and under the same terms, as for `CN(C)CCN1CCN(c2cc3c(cc2NC(=O)c2cnn4cccnc24)CC(C)(C)O3)CC1` [Example 4, N-(6-(4-(2-(Dimethylamino)ethyl)piperazin-1-yl)-2,2-dimethyl-2,3-dihydrobenzofuran-5-yl)pyrazolo[1,5-a]pyrimidine-3-carboxamide], the figure is 41 nM; as for `CCc1oncc1CN1CCN(c2cc3c(cc2NC(=O)c2cnn4cccnc24)CN(C[C@@H](F)C(C)(C)O)C3=O)CC1` [Example 103, (R)-N-(6-(4-((5-Ethylisoxazol-4-yl)methyl)piperazin-1-yl)-2-(2-fluoro-3-hydroxy-3-methylbutyl)-1-oxoisoindolin-5-yl)pyrazolo[1,5-a]pyrimidine-3-carboxamide], 5.4 nM.

On to `COc1cc2c(cc1NC(=O)c1cnn3ccc(Cl)nc13)CC(C)(C)O2` [Example 21, 5-Chloro-N-(6-methoxy-2,2-dimethyl-2,3-dihydrobenzofuran-5-yl)pyrazolo[1,5-a]pyrimidine-3-carboxamide], for which the Ki is 110 nM. On the same count and under the same terms, as for `COc1cc2c(cc1NC(=O)c1cnn3cccnc13)CN(C[C@@H](F)C(C)(C)O)C2=O` [Example 86, (R)-N-(2-(2-Fluoro-3-hydroxy-3-methylbutyl)-6-methoxy-1-oxoisoindolin-5-yl)pyrazolo[1,5-a]pyrimidine-3-carboxamide], the figure is 1.3 nM. The same measure, in the same setting: to `O=C(Nc1cc2c(cc1N1CCOCC1)N(CCO)C(=O)CC2)c1cnn2cccnc12` [Example 47, N-(1-(2-Hydroxyethyl)-7-morpholino-2-oxo-1,2,3,4-tetrahydroquinolin-6-yl)pyrazolo[1,5-a]pyrimidine-3-carboxamide] belongs 53 nM; to `CC1(C)Cc2cc(NC(=O)c3cnn4cccnc34)c(O[C@H]3CN(CC(N)=O)C[C@@H]3N)cc2O1` [Example 19, N-(6-(((3S,4S)-4-Amino-1-(2-amino-2-oxoethyl)pyrrolidin-3-yl)oxy)-2,2-dimethyl-2,3-dihydrobenzofuran-5-yl)pyrazolo[1,5-a]pyrimidine-3-carboxamide], 53 nM. Same read-out and setting: as for `CC1(C)Cc2cc(NC(=O)c3cnn4cccnc34)c(OC[C@@H]3Cc4ccccc4[C@H]3N)cc2O1` [Example 26, N-[6-[[(1S,2R)-1-Aminoindan-2-yl]methoxy]-2,2-dimethyl-3H-benzofuran-5-yl]pyrazolo[1,5-a]pyrimidine-3-carboxamide], the figure is 280 nM; as for `CCc1oc(=O)[nH]c1CN1CCN(c2cc3c(cc2NC(=O)c2cnn4cccnc24)CC(C)(C)O3)CC1` [Example 15, N-(6-(4-((5-Ethyl-2-oxo-2,3-dihydrooxazol-4-yl)methyl)piperazin-1-yl)-2,2-dimethyl-2,3-dihydrobenzofuran-5-yl)pyrazolo[1,5-a]pyrimidine-3-carboxamide], 9.4 nM; as for `Cc1nc[nH]c1CN1CCN(c2cc3c(cc2NC(=O)c2cnn4cccnc24)CC(C)(C)O3)CC1` [Example 8, N-(2,2-Dimethyl-6-(4-((4-methyl-1H-imidazol-5-yl)methyl)piperazin-1-yl)-2,3-dihvdrobenzofuran-5-yl)pyrazolo[1,5-a]pyrimidine-3-carboxamide], 3.8 nM.

With `Cn1cc(Oc2cc3c(cc2NC(=O)c2cnn4cccnc24)CN(C[C@@H](F)C(C)(C)O)C3=O)cn1` [Example 89, (R)-N-(2-(2-Fluoro-3-hydroxy-3-methylbutyl)-6-((1-methyl-1H-pyrazol-4-yl)oxy)-1-oxoisoindolin-5-yl)pyrazolo[1,5-a]pyrimidine-3-carboxamide], the Ki came to 1.3 nM. Same read-out and setting: to `Cc1ncsc1CN1CCN(c2cc3c(cc2NC(=O)c2cnn4cccnc24)CC(C)(C)O3)CC1` [Example 11, N-(2,2-Dimethyl-6-(4-((4-methylthiazol-5-yl)methyl)piperazin-1-yl)-2,3-dihydrobenzofuran-5-yl)pyrazolo[1,5-a]pyrimidine-3-carboxamide] belongs 4.6 nM; to `CC(C)(O)[C@H](F)CN1Cc2cc(NC(=O)c3cnn4cc(O)cnc34)c(N3CCOCC3)cc2C1=O` [Example 133, (R)—N-(2-(2-Fluoro-3-hydroxy-3-methylbutyl)-6-morpholino-1-oxoisoindolin-5-yl)-6-hydroxypyrazolo[1,5-a]pyrimidine-3-carboxamide], 5.7 nM; to `CC(C)(O)[C@H](F)CN1Cc2cc(NC(=O)c3cnn4cccnc34)c(OC[C@@H]3CNC(=O)C3)cc2C1=O` [Example 71, N-[2-[(2R)-2-Fluoro-3-hydroxy-3-methyl-butyl]-1-oxo-6-[[(3S)-5-oxopyrrolidin-3-yl]methoxy]isoindolin-5-yl]pyrazolo[1,5-a]pyrimidine-3-carboxamide], 3.2 nM. Regarding `C[C@H]1C[C@@H]2CN(c3cc4c(cc3NC(=O)c3cnn5cccnc35)CN(C[C@@H](F)C(C)(C)O)C4=O)CCN2C1` [Example 110, N-[6-[(7S,8aR)-7-Methyl-3,4,6,7,8,8a-hexahydro-1H-pyrrolo[1,2-a]pyrazin-2-yl]-2-[(2R)-2-fluoro-3-hydroxy-3-methyl-butyl]-1-oxo-isoindolin-5-yl]pyrazolo[1,5-a]pyrimidine-3-carboxamide], the Ki was 7.5 nM. Consider `Cc1oncc1CN1CCN(c2cc3c(cc2NC(=O)c2cnn4cccnc24)CC(C)(C)O3)CC1` [Example 12, N-(2,2-Dimethyl-6-(4-((5-methylisoxazol-4-yl)methyl)piperazin-1-yl)-2,3-dihydrobenzofuran-5-yl)pyrazolo[1,5-a]pyrimidine-3-carboxamide], for which the Ki was found to be 5.2 nM. Still for that read-out and setting: to `CO[C@H]1C[C@@H]2CN(c3cc4c(cc3NC(=O)c3cnn5cccnc35)CN(C[C@@H](F)C(C)(C)O)C4=O)CCN2C1` [Example 108, N-(2-((R)-2-Fluoro-3-hydroxy-3-methylbutyl)-6-((7S,8aR)-7-methoxyhexahydropyrrolo[1,2-a]pyrazin-2(1H)-yl)-1-oxoisoindolin-5-yl)pyrazolo[1,5-a]pyrimidine-3-carboxamide] belongs 1.3 nM. Same read-out and setting: to `CNc1cc2c(cc1NC(=O)c1cnn3cccnc13)CN(C[C@@H](F)C(C)(C)O)C2=O` [Example 91, N-[2-[(2R)-2-Fluoro-3-hydroxy-3-methyl-butyl]-6-(methylamino)-1-oxo-isoindolin-5-yl]pyrazolo[1,5-a]pyrimidine-3-carboxamide] belongs 280 nM.

With `CC(C)(O)[C@H](F)CN1Cc2cc(NC(=O)c3cnn4cccnc34)c(OC3CCOCC3)cc2C1=O` [Example 85, (R)-N-(2-(2-Fluoro-3-hydroxy-3-methylbutyl)-1-oxo-6-((tetrahydro-2H-pyran-4-yl)oxy)isoindolin-5-yl)pyrazolo[1,5-a]pyrimidine-3-carboxamide], the Ki was determined as 1.8 nM.

For the compound `CC(C)(O)[C@H](F)CN1Cc2cc(NC(=O)c3cnn4cccnc34)c(OC3CCCC3)cc2C1=O` [Example 80, (R)-N-(6-(Cyclopentyloxy)-2-(2-fluoro-3-hydroxy-3-methylbutyl)-1-oxoisoindolin-5-yl)pyrazolo[1,5-a]pyrimidine-3-carboxamide], the Ki worked out at 0.97 nM.

With `CC(C)(O)[C@H](F)CN1Cc2cc(NC(=O)c3cnn4cccnc34)c(OC3CCNCC3)cc2C1=O` [Example 70, (R)-N-(2-(2-Fluoro-3-hydroxy-3-methylbutyl)-1-oxo-6-(piperidin-4-yloxy)isoindolin-5-yl)pyrazolo[1,5-a]pyrimidine-3-carboxamide], the Ki was determined as 0.7 nM. Regarding `CC(=O)NCCN1CCN(c2cc3c(cc2NC(=O)c2cnn4cccnc24)CC(C)(C)O3)CC1` [Example 3, N-(6-(4-(2-Acetamidoethyl)piperazin-1-yl)-2,2-dimethyl-2,3-dihydrobenzofuran-5-yl)pyrazolo[1,5-a]pyrimidine-3-carboxamide], the Ki was 3.7 nM.
